Data: patent US7470680B2, “Constrained compounds as CGRP-receptor antagonists” (Bristol-Myers Squibb Company, priority 2006, dated 2008)

Molecular target: CGRP receptor (Homo sapiens, UniProt O60894+Q16602)
Experiment: CGRP radioligand binding assay ([125I]-CGRP displacement, SK-N-MC homogenate)
Set-up: endogenous in cells; host or cells: SK-N-MC cells (homogenate/membrane pellet)
Settings: Table 1; displacement of [125I]-CGRP, SK-N-MC membranes
Procedure: CGRP Binding Assay. Tissue Culture. SK-N-MC cells were grown at 37° C. in 5% CO2 as a monolayer in medium consisting of MEM with Earle's salts and L-glutamine (Gibco) supplemented with 10% fetal bovine serum (Gibco). Cell Pellets. The cells were rinsed twice with phosphate-buffered saline (155 mM NaCl, 3.3 mM Na2HPO4, 1.1 mM KH2PO4, pH 7.4), and incubated for 5-10 min. at 4° C. in hypotonic lysis buffer consisting of 10 mM Tris (pH 7.4) and 5 mM EDTA. The cells were transferred from plates to polypropylene tubes (16×100 mm) and homogenized using a polytron. Homogenates were centrifuged at 32,000×g for 30 min. The pellets were resuspended in cold hypotonic lysis buffer with 0.1% mammalian protease inhibitor cocktail (Sigma) and assayed for protein concentration. The SK-N-MC homogenate was then aliquoted and stored at −80° C. until needed.
Radioligand Binding Assay. The compounds of invention were solubilized and carried through serial dilutions using 100% DMSO. Aliquots from the compound serial dilutions were further diluted 25 fold into assay buffer (50 mM Tris-Cl pH 7.5, 5 mM MgCl2, 0.005% Triton X-100) and transferred (volume 50 μl) into 96 well assay plates. [^125I]-CGRP (Amersham Biosciences) was diluted to 60 pM in assay buffer and a volume of […] was added to each well. SK-N-MC pellets were thawed, diluted in assay buffer with fresh 0.1% mammalian protease inhibitor cocktail (Sigma), and homogenized again. SK-N-MC homogenate (5 μg/well) was added in a volume of 100 μl. The assay plates were then incubated at room temperature for 2 h. Assays were stopped by addition of excess cold wash buffer (20 mM Tris-Cl pH 7.5, 0.1% BSA) immediately followed by filtration over glass fiber filters (Whatman GF/B) previously soaked in 0.5% PEI. Non-specific binding was defined with 1 μM beta-CGRP. Protein bound radioactivity was determined using a gamma or scintillation counter. The IC50 was defined as the concentration of a compound of invention required to displace 50% of radioligand binding.

CGRP receptor, sequence (Q16602 23-461): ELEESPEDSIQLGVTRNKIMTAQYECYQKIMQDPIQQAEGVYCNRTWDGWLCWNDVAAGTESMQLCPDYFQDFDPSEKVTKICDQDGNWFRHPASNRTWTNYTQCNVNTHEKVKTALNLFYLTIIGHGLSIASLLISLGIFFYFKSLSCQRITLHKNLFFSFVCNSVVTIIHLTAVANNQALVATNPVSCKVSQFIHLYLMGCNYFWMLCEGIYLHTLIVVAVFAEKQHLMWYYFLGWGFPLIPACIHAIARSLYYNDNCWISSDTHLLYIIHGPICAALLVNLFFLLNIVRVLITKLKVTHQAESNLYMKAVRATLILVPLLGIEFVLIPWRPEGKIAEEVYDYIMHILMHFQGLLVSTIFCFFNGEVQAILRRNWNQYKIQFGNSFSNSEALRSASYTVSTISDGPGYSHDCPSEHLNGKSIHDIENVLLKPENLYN
CGRP receptor, sequence (O60894 27-148): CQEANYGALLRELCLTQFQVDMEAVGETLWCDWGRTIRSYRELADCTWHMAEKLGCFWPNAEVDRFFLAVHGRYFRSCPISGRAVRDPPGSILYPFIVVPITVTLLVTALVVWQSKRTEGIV

CC(C)(C)CN1Cc2c(cc(Cl)c3[nH]ncc23)C[C@@H](CC(=O)N2CCC(c3cc4scc(Br)c4[nH]c3=O)CC2)C1=O and Cn1ccc2[nH]c(=O)c(C3CCN(C(=O)C[C@@H]4Cc5cc(Cl)c6[nH]ccc6c5CN(CC(C)(C)C)C4=O)CC3)cc21 fall in the same range of IC50: 0.01 to 10 nM for the first, 0.01 to 10 nM for the second.

Cn1ncc2c3c(cc(Cl)c21)C[C@@H](CC(=O)N1CCC(n2c(=O)[nH]c4ncccc42)CC1)C(=O)N(CC(F)(F)F)C3 and O=C(C[C@@H]1Cc2cc(Cl)c3[nH]ncc3c2CN(CC(F)(F)F)C1=O)N1CCC(n2c(=O)[nH]c3ncccc32)CC1 fall in the same range of IC50: 0.01 to 10 nM for the first, 0.01 to 10 nM for the second.

O=C(C[C@@H]1Cc2cc(Cl)c3[nH]ncc3c2CN(CC(F)(F)F)C1=O)N1CCC(N2CCc3cccnc3NC2=O)CC1 and O=C(C[C@@H]1Cc2cc(Cl)c3[nH]ncc3c2CN(CC(F)(F)F)C1=O)N1CCC(N2CCc3ncccc3NC2=O)CC1 fall in the same range of IC50: 0.01 to 10 nM for the first, 0.01 to 10 nM for the second.

O=C(C[C@@H]1Cc2cc(Br)c3[nH]nc(Cl)c3c2CN(CC(F)(F)F)C1=O)N1CCC(n2c(=O)[nH]c3ncccc32)CC1 and O=C(C[C@@H]1Cc2cc(Cl)c3[nH]nc(Cl)c3c2CN(CC(F)(F)F)C1=O)N1CCC(n2c(=O)[nH]c3ncccc32)CC1 fall in the same range of IC50: 0.01 to 10 nM for the first, 0.01 to 10 nM for the second.

Compared with O=C(C[C@@H]1Cc2cc(Cl)c3[nH]ncc3c2CN(CC(F)(F)F)C1=O)N1CCC(N2CCN(c3ccccc3F)C2=O)CC1, O=C(C[C@@H]1Cc2cc(Cl)c3[nH]ncc3c2CN(CC(F)(F)F)C1=O)N1CCC(N2CCc3ccccc3NC2=O)CC1 is lower in IC50: > 1000 nM for the first, 0.01 to 10 nM for the second. The second is the more potent here.

O=C(C[C@@H]1Cc2cc(Cl)c3[nH]nc(Cl)c3c2CN(CCN2CCCCC2)C1=O)N1CCC(n2c(=O)[nH]c3ncccc32)CC1 and O=C(C[C@@H]1Cc2cc(Cl)c3[nH]nc(Cl)c3c2CN(CCN2CCCCC2)C1=O)N1CCC(N2CCc3ccccc3NC2=O)CC1 fall in the same range of IC50: 0.01 to 10 nM for the first, 0.01 to 10 nM for the second.

O=C(C[C@@H]1Cc2cc(Br)c3[nH]nc(Cl)c3c2CN(CC(F)(F)F)C1=O)N1CCC(N2CCc3ccccc3NC2=O)CC1 and O=C(C[C@@H]1Cc2cc(Br)c3[nH]nc(Br)c3c2CN(CC(F)(F)F)C1=O)N1CCC(N2CCc3ccccc3NC2=O)CC1 fall in the same range of IC50: 0.01 to 10 nM for the first, 0.01 to 10 nM for the second.

N#Cc1cc(Cl)ccc1C1=CCN(C(=O)C[C@@H]2Cc3cc(Cl)c4[nH]ncc4c3CN(CC(F)(F)F)C2=O)CC1 and N#Cc1cn(C2CCN(C(=O)C[C@@H]3Cc4cc(Cl)c5[nH]ncc5c4CN(CC(F)(F)F)C3=O)CC2)c(=O)[nH]1 fall in the same range of IC50: 10 to 100 nM for the first, 10 to 100 nM for the second.

First: O=C(C[C@@H]1Cc2cc(Cl)c3c(cnn3Cc3ccccc3)c2CN(CC(F)(F)F)C1=O)N1CCC(n2c(=O)[nH]c3ncccc32)CC1
Second: O=C(C[C@@H]1Cc2cc(Cl)c3[nH]ncc3c2CN(CC(F)(F)F)C1=O)N1CCC(n2c(=O)[nH]c3ccccc32)CC1
The IC50 of the first is higher: 10 to 100 nM for the first, 0.01 to 10 nM for the second.

First: O=C(O[C@@H]1Cc2cc(Cl)c3[nH]ncc3c2CN(CC(F)(F)F)C1=O)N1CCC(n2c(=O)[nH]c3ncccc32)CC1
Second: O=C(C[C@@H]1Cc2cc(Cl)c3[nH]ncc3c2CN(CC(F)(F)F)C1=O)N1CCC(n2c(=O)[nH]c3c2ccc[n+]3[O-])CC1
The IC50 of the first is lower: 0.01 to 10 nM for the first, 10 to 100 nM for the second.

First: CC(C)(C)CN1Cc2c(cc(Cl)c3[nH]ccc23)C[C@@H](CC(=O)N2CCC(O)(c3cc(Cl)nc4[nH]ccc34)CC2)C1=O
Second: O=C1Nc2ccccc2C2(CCN(C(=O)C[C@@H]3Cc4cc(Cl)c5[nH]ncc5c4CN(CC(F)(F)F)C3=O)CC2)N1
The IC50 of the first is higher: 100 to 1000 nM for the first, 0.01 to 10 nM for the second. The second is the more potent here.

Cn1ncc2c3c(cc(Cl)c21)C[C@@H](CC(=O)N1CCC(N2CCc4ccccc4NC2=O)CC1)C(=O)N(CC(F)(F)F)C3 and COCCn1ncc2c3c(cc(Cl)c21)C[C@@H](CC(=O)N1CCC(N2CCc4ccccc4NC2=O)CC1)C(=O)N(CC(F)(F)F)C3 fall in the same range of IC50: 0.01 to 10 nM for the first, 0.01 to 10 nM for the second.

Compared with O=C1NC(=O)C2(CCN(C(=O)C[C@@H]3Cc4cc(Cl)c5[nH]ncc5c4CN(CC(F)(F)F)C3=O)CC2)N1, O=C(C[C@@H]1Cc2cc(Cl)c3[nH]ncc3c2CN(CC(F)(F)F)C1=O)N1CCC(n2cc[nH]c2=O)CC1 is lower in IC50: 10 to 100 nM for the first, 0.01 to 10 nM for the second. The second is the more potent here.

Compared with O=C(C[C@@H]1Cc2cc(Cl)c3[nH]ncc3c2CN(CC(F)(F)F)C1=O)N1CCC(n2ccn(-c3ccccc3)c2=O)CC1, O=C(C[C@@H]1Cc2cc(Cl)c3[nH]ncc3c2CN(CC(F)(F)F)C1=O)N1CCC(N2CCc3cccc(F)c3NC2=O)CC1 is lower in IC50: 100 to 1000 nM for the first, 10 to 100 nM for the second. The second is the more potent here.

Same assay, conditions: Table 2; displacement of [125I]-CGRP, SK-N-MC membranes

Compared with CC(C)(C)CN1Cc2c(ccc3[nH]ncc23)C[C@@H](CC(=O)N2CCC(N3Cc4ccccc4NC3=O)CC2)C1=O [drawing 135], CC(C)(C)CN1Cc2c(ccc3[nH]ncc23)CC(N/C(=N/C#N)N2CCC(N3Cc4ccccc4NC3=O)CC2)C1=O (centres unmarked) is lower in IC50: 100 to 1000 nM for the first, 0.01 to 10 nM for the second.

O=C1Nc2ccccc2CC1N1CCN(C(=O)N[C@@H]2Cc3ccc4[nH]ncc4c3CN(Cc3ccccc3)C2=O)CC1 (some centres unmarked) and CC(C)(C)CN1Cc2c(ccc3[nH]ncc23)C[C@@H](NC(=O)N2CCC3(CC2)N=C(c2ccccc2)NC3=O)C1=O fall in the same range of IC50: 100 to 1000 nM for the first, 100 to 1000 nM for the second.

First: CCc1cc2c(c3cn[nH]c13)CN(CC(F)(F)F)C(=O)[C@H](CC(=O)N1CCC(c3cc4cccc(F)c4[nH]c3=O)CC1)C2
Second: O=C(C[C@@H]1Cc2cc(Cl)c3[nH]ncc3c2CN(CC(F)(F)F)C1=O)N1CCC(c2cc3cccc(F)c3[nH]c2=O)CC1
The IC50 of the first is higher: 10 to 100 nM for the first, 0.01 to 10 nM for the second.

O=C(C[C@@H]1Cc2cc(Cl)c3[nH]ncc3c2CN(Cc2ccncc2)C1=O)N1CCC(c2cc3ccccc3c[n+]2[O-])CC1 and O=C(C[C@@H]1Cc2cc(Cl)c3[nH]ncc3c2CN(Cc2ccncc2)C1=O)N1CCC(c2cc3cccc(F)c3[nH]c2=O)CC1 fall in the same range of IC50: 0.01 to 10 nM for the first, 0.01 to 10 nM for the second.

CC(C)(C)CN1Cc2c(cc(Cl)c3[nH]ncc23)C[C@@H](N/C(=N/C#N)N2CCC(c3cc4ccccc4[nH]c3=O)CC2)C1=O and CC(C)(C)CN1Cc2c(cc(Br)c3[nH]ncc23)C[C@@H](CC(=O)N2CCC(c3cc4ccccc4[nH]c3=O)CC2)C1=O fall in the same range of IC50: 0.01 to 10 nM for the first, 0.01 to 10 nM for the second.

O=C(C[C@@H]1Cc2cc(Cl)c3[nH]ncc3c2CN(CC(F)(F)F)C1=O)N1CCC(c2cc3ccccc3[nH]c2=O)CC1 and O=C(C[C@@H]1Cc2cc(Cl)c3[nH]ncc3c2CN(CC(F)(F)F)C1=O)N1CCC(c2cc3cccnc3[nH]c2=O)CC1 fall in the same range of IC50: 0.01 to 10 nM for the first, 0.01 to 10 nM for the second.

Compared with CC(C)(C)CN1Cc2c(cc(Cl)c3[nH]ncc23)C[C@@H](CC(=O)N2CCC(c3cc4cc(F)c(F)cc4[nH]c3=O)CC2)C1=O, CC(C)(C)CN1Cc2c(cc(Cl)c3[nH]ncc23)C[C@@H](CC(=O)N2CCC(c3cc4ccc(Cl)cc4[nH]c3=O)CC2)C1=O is lower in IC50: 10 to 100 nM for the first, 0.01 to 10 nM for the second.

First: CC(=O)N1CCC(N2Cc3c(ccc4[nH]ncc34)C[C@@H](NC(=O)N3CCC(N4Cc5ccccc5NC4=O)CC3)C2=O)CC1
Second: CC(C)(C)CN1Cc2c(ccc3[nH]ncc23)C[C@@H](NC(=O)N2CCC3(CC2)CC(=O)Nc2ccccc23)C1=O
The IC50 of the first is lower: 10 to 100 nM for the first, > 1000 nM for the second. The first is the more potent here.

CC(C)(C)CN1Cc2c(cc(Cl)c3[nH]ncc23)C[C@@H](CC(=O)N2CCC(c3cc4cccnc4[nH]c3=O)CC2)C1=O and Cc1cc2c(c3cn[nH]c13)CN(CC(C)(C)C)C(=O)[C@H](CC(=O)N1CCC(c3cc4ccccc4[nH]c3=O)CC1)C2 fall in the same range of IC50: 0.01 to 10 nM for the first, 0.01 to 10 nM for the second.

First: O=C(C[C@@H]1Cc2cc(Br)c3[nH]ncc3c2CN(CC2CC2)C1=O)N1CCC(c2cc3ccccc3[nH]c2=O)CC1
Second: COc1cc2ccccc2cc1C1CCN(C(=O)N[C@@H]2Cc3cc(Cl)c4[nH]ncc4c3CN(CC(C)(C)C)C2=O)CC1
The IC50 of the first is lower: 0.01 to 10 nM for the first, > 1000 nM for the second.

CC(C)(C)CN1Cc2c(cc(Cl)c3[nH]ncc23)C[C@@H](CC(=O)N2CCC(N3Cc4cccnc4NC3=O)CC2)C1=O and CC(C)(C)CN1Cc2c(cc(Cl)c3[nH]ncc23)C[C@@H](CC(=O)Nc2ccc3c(c2)CCC2(C3)NC(=O)NC2=O)C1=O (some centres unmarked) fall in the same range of IC50: 0.01 to 10 nM for the first, 0.01 to 10 nM for the second.
